Each structure is given as a SMILES string.

Series [1] is described as follows: Pharmacokinetics and brain distribution after single sc dose to mice. Format: in vivo.
For series [2], the target named is MMP-9cat (catalytic domain of human recombinant MMP-9) (Homo sapiens, UniProt P14780). Briefly: MMP inhibition kinetics, MMP-9cat. It counts as biochemical. As to conditions: slow-binding; Ki calculated from koff/kon.
A short description of series [3]: Metabolic stability in male rat liver S9. Format: in vitro ADME.
Where [4] appears, read: female, C57Bl/6J, mouse, in vivo, 25 mg/kg.
The mark [5] stands for this setting: female, C57Bl/6J, mouse, in vivo, sc, 25 mg/kg.

Sequence of MMP-9cat (catalytic domain of human recombinant MMP-9) (P14780 107-444 limits assumed): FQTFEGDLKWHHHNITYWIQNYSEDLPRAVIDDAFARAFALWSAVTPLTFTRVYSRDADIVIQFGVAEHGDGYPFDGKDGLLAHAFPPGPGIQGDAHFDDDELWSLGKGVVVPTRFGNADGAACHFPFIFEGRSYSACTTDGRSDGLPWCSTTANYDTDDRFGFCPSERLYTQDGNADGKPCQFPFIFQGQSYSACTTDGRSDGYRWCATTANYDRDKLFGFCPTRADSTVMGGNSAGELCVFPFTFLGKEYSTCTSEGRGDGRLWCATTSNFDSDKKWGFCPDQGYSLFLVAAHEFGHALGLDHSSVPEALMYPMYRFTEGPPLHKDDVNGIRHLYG

Take `CCNC(=O)Oc1ccc(Oc2ccc(S(=O)(=O)CC3CS3)cc2)cc1` (stereo not drawn) [Compound 5b, 4-(4-((Thiiran-2-ylmethyl)sulfonyl)phenoxy)phenyl ethylcarbamate]: the “level of 5b in plasma or brain” value in series [1] (after 25 mg/kg sc dose of 5b, all time points) is recorded as “not quantifiable”.
As to `CCOC(=O)Nc1ccc(Oc2ccc(S(=O)(=O)CC3CS3)cc2)cc1` (stereo not drawn) [Compound 7b, Ethyl (4-(4-((thiiran-2-ylmethyl)sulfonyl)phenoxy)phenyl)carbamate], in series [2], the “Ki (inhibition constant) against MMP-9cat” value is “comparable inhibition constants against MMP-9cat as ND-322”.
Broadly, the AUC(0-inf) is total exposure, with the tail of the curve extrapolated. The term AUC(0-t) denotes the area under the concentration-time curve up to a stated or last time point. A high value points to more exposure. For orientation: Tmax means the time from dosing to the highest level. A word on the half-life: it is the time needed for the level to fall by half in the phase considered. For the molecule `O=S(=O)(CC1CS1)c1ccc(Oc2ccc(O)cc2)cc1` (stereo not drawn) [Compound 2], the “time of maximal brain level of 2” value in series [1] (after 25 mg/kg sc dose of 5b) is 20 min. Also, in series [1] (after 25 mg/kg sc dose of 5b, at 20 min, assuming a density of 1.0 g/mL), the “maximal brain level of 2, molar equivalent” value is 1.35 ± 1.10 µM. Besides, the “brain level of 2 at 4 h” value in series [1] (after 25 mg/kg sc dose of 5b, mice) turned out to be 0.255 ± 0.0154 pmol/mg. Also, in series [1] (after 25 mg/kg sc dose of 5b, mice, at 10 min), the “maximal plasma concentration of 2” value is given as 1.24 ± 0.676 µM. Further, in series [1] (after 25 mg/kg sc dose of 5b, mice, at 20 min), the “maximal brain level of 2” value is recorded as 1.35 ± 1.10 pmol/mg tissue. Further, the “t½α, plasma” value in series [1] (compound 2 after 25 mg/kg sc dose of 5b, mice) was found to be 41.3 min. In series [1] (setting [4]), the Kp worked out at 1.64 and the concentration at 4 h stood at 114 ± 14.7 nM. Moreover, in series [1] (setting [5]), the AUC(0-inf) is 1.17 µM·h, the AUC(0-t) is 0.9 µM·h and the Tmax is 10 min. Moreover, in series [1] (female, C57Bl/6J, mouse, in vivo, sc, 25 mg/kg, t½β, brain), the half-life is 533 min. This molecule came in with a half-life in series [1] (female, C57Bl/6J, mouse, in vivo, sc, 25 mg/kg, t½β, plasma) of 462 min. The molecule further had a half-life in series [1] (female, C57Bl/6J, mouse, in vivo, sc, terminal half-life in brain) of 534 min. In series [1] (female, C57Bl/6J, mouse, in vivo, sc, terminal half-life in plasma), this molecule showed a half-life of 462 min. For the same molecule, in series [1] (mouse, in vivo, sc, 25 mg/kg), the “AUC0-last, brain” value worked out at 88.8 pmol·min/mg and the “AUC0-∞, brain” value was 129 pmol·min/mg.
On to `CCNC(=O)Nc1ccc(Oc2ccc(S(=O)(=O)CC3CS3)cc2)cc1` (stereo not drawn) [Compound 6b, 1-Ethyl-3-(4-(4-((thiiran-2-ylmethyl)sulfonyl)phenoxy)phenyl)urea], for which, in series [1] (6b after 25 mg/kg sc dose of 6b), the “elimination half-life in brain relative to plasma” value is given as 3.3 fold. Further, in series [1] (after 25 mg/kg sc dose of 6b), the “hydrolysis of 6b to give compound 3 in plasma and brain” value is given as “not observed”; the “time of maximal brain level of 6b” value was found to be 10 min.
Take `CCOC(=O)Oc1ccc(Oc2ccc(S(=O)(=O)CC3CS3)cc2)cc1` (stereo not drawn) [Compound 4b, Ethyl (4-(4-((thiiran-2-ylmethyl)sulfonyl)phenoxy)phenyl) carbonate]: the “time to complete hydrolysis to compound 2” value in series [3] is not above 5 min. In series [2], the “Ki (inhibition constant) against MMP-9cat” value was “comparable inhibition constants against MMP-9cat as ND-322”.

Source of the values: publication PMC3880597 (Journal of medicinal chemistry, 2013).
